Experimental findings from article PMC8879474, “Tissue Transglutaminase but Not Microbial Transglutaminase Is Inhibited by Exogenous Oxidative Substances in Celiac Disease” (International Journal of Molecular Sciences, 2022) are described below.

This assay has as its target T1, transglutaminase 2 (TG2, tissue transglutaminase) (Homo sapiens, UniProt P21980).
T1 construct: gene TGM2
T1 sequence (P21980 2-687): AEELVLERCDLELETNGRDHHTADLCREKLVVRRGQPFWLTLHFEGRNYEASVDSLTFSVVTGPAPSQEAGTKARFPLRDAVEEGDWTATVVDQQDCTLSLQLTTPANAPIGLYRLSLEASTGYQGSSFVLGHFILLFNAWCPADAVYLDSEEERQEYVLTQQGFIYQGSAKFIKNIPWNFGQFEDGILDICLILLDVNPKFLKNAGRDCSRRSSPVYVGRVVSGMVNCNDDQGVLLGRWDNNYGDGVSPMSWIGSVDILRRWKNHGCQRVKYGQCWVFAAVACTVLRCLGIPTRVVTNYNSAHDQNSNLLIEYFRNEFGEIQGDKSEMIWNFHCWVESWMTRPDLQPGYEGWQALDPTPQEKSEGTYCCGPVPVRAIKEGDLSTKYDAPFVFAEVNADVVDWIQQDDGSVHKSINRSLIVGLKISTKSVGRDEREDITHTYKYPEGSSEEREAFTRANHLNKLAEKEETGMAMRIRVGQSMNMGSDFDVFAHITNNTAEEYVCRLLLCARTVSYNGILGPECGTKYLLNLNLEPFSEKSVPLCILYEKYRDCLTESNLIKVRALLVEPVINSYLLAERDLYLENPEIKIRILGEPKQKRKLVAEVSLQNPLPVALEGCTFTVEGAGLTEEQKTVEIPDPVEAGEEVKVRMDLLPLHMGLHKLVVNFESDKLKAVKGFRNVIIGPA
The assay is described as follows: in vitro 5BP transamidation assay with immobilized TG2 ([…]), photometric. It is filed as biochemical.

`N[C@@H](CSSC[C@H](N)C(=O)O)C(=O)O` [L-cystine] yielded a 50% inhibitory concentration (IC50) of 140 µM.
The value for `CCC(C)SSc1ncc[nH]1` (centres unmarked) [PX12, 1-methylpropyl 2-imidazolyl disulfide] was 0.7 µM.
